From patent US9504674B2, “TrkB agonists and methods of use” (EMORY UNIVERSITY, priority 2010, dated 2016)

Tests used:
TrkB [1] = biological target: T1, TrkB (Mus musculus, UniProt P15209); test: TrkB activation in brain of chronically treated mice (immunoblotting p-TrkB 817, immunohistochemistry p-TrkB Y816); assay type: in vivo; conditions: for TrkB activation in mouse brain after chronic treatment: 5 mg/kg oral 21 days, brain lysates, immunoblotting p-TrkB 817; for TrkB activation in the dentate gyrus: 5 mg/kg oral, after 21 days treatment, immunohistochemistry
T1 construct: from tissue; host or cells: brain of wild-type C57BL/6J mice
Description: Paraffin section were deparaffinized in xylene and rehydrated gradient ethanol solution. Samples were boiled in 10 mM sodium citrate buffer for 20 min for antigen retrieval purpose. Brain sections were incubated with anti-TrkB (BD biosciences, San Jose, Calif.) 1:50, and anti-p-TrkB Y816 was used at 1:300 dilution. Secondary antibody were applied using antirabbit-Alexa 594 (red), antimouse-FITC (green). DAPI (blue) was used for nuclear staining.
(§1) The brain lysates from above chronically treated mice were analyzed by immunoblotting with anti-p-TrkA 794 and p-TrkB 817.
Brain tissues were fixed in 4% paraformaldehyde overnight followed by paraffin embedding. Sections of […] were cut. For immunohistochemical staining, brain sections were deparaffinized in xylene and rehydrated in graded alcohols. Endogenous peroxidase activity was blocked by 3% hydrogen peroxide for 5 minutes and all slides were boiled in 10 mM sodium citrate buffer (pH 6.0) for 10 minutes. Phosphorylated Trk B816 and Trk B were detected using specific antibodies. Paraffin section were deparaffinized in xylene and rehydrated gradient ethanol solution. Samples were boiled in 10 mM sodium citrate buffer for 20 min for antigen retrieval purpose. Brain sections were incubated with anti-TrkB (BD biosciences, San Jose, Calif.) 1:50, p-TrkB 1:300 dilution. Secondary antibodies were applied using anti-rabbit-Alexa 594 (red), anti-mouse-FITC (green). DAPI (blue) was used for nuclear staining
Administration of chronic, but not acute, monoamine antidepressant drugs enhances adult neurogenesis in dentate gyrus of rodents and non-human primates, while blocking neurogenesis by irradiation attenuates the behavioral antidepressant-like effects of these drugs in some rodent strains. […] Ablation of TrkB specifically in hippocampal neural progenitor cells prevents chronic antidepressant-induced neurogenesis and renders the mice behaviorally non-responsive to chronic antidepressant treatment. To test whether increasing TrkB activation by these small agonists would elevate the neurogenesis, adult male C57BL/6J mice were orally injected with either vehicle, 7,8-DHF, or 4′-DMA-7,8-DHF (5 mg/kg) for 21 days. At the end of treatment (day 21), animals were injected with BrdU (50 mg/kg, intraperitoneally) to label dividing cells and were sacrificed 2 h later. BrdU immunohistochemistry was used to assess progenitor proliferation (FIG. 4A). […] Therefore, chronic treatment with TrkB agonists promotes neurogenesis in the hippocampus of mice.
(§2) Accumulating evidence supports that BDNF plays a role in mediating therapeutic effects of antidepressants. Infusion of exogenous BDNF into hippocampus or brain stem has anti-depressant-like behavioral effect. A forced swim test is broadly used for screening of potential antidepressant drugs and is widely used to measure antidepressant activity. To explore whether 4′-DMA-7,8-DHF and 7,8-DHF have any antidepressant effect like BDNF, a forced swim test was conducted after chronic treatment of the mice for 21 days via oral injection.
(§3) BDNF/TrkB signaling plays an role in mediating antidepressants' therapeutic effects. A forced swim test is broadly used for screening of potential antidepressant drugs and is widely used to measure antidepressant activity. To explore whether imidazole flavanoid and compound i have any antidepressant effect like BDNF, a forced swim test was conducted after chronic treatment of the mice for 21 days via oral administration.

TrkB [2] = biological target: T2, TrkB (Rattus norvegicus, UniProt Q63604); test: TrkB phosphorylation in primary rat cortical neurons (immunoblotting); assay type: cell-based; conditions: for TrkB activation (phosphorylation) compared to vehicle control: 500 nM compound, 20 min, primary rat cortical neurons, immunoblotting; for minimal concentration triggering TrkB activation (titration assay): primary cortical neurons, different doses
T2 construct: endogenous in cells; host or cells: primary rat cortical neurons (E17 embryos, 13 DIV)
Description: (§4) Primary rat cortical neurons from E17 embryos (13 DIV) were treated with 500 nM various chemicals for 15 min. The neuronal cell lysates were collected and resolved on 10% SDS-PAGE. Immunoblotting was conducted with various antibodies. p-TrkB Y817 antibody was employed at 1:20000-40000 dilution.
as §4, with “days in vitro (DIV))” for “DIV)”, “1:20,000-40,000 dilution (top panel). Equal amount of TrkB was loaded in all of the samples (middle panel). P-Akt 473 ELISA analysis with the neuronal lysates (bottom panel).” for “1:20000-40000 dilution.”
7,8-dihydroxyflavone (7,8-DHF) is a small molecular TrkB agonist. Preliminary structure-activity relationship study (SAR) supports that 7,8-catechol moiety is essential for the agonistic effect by 7,8-DHF. To explore the structure-activity relationship (SAR) in depth, the TrkB stimulatory activity was examined by numerous flavonoid derivatives. The numeric positions and each ring's nomenclature are designated (FIG. 1A). Compounds were dissolved in DMSO, then diluted into […] with 1× PBS (final vehicle contains 10% DMSO/PBS) (FIG. 1B). Primary rat cortical neurons were treated with 500 nM compounds for 20 min. The cell lysates were analyzed by immunoblotting. […] Downstream activation of the TrkB target Akt was tightly correlated with TrkB activation patterns by these derivatives (FIG. 1C, bottom panel). As observed, the hydroxy groups on B ring can regulate 7,8-DHF's stimulatory activity on TrkB receptor. As 2′-hydroxy, especially 3′-hydroxy group, elevates the agonistic effect, whereas 4′-hydroxy group diminishes its stimulatory effect.
To compare the TrkB activation by these synthetic compounds, primary cortical cultures were prepared. Cortical neurons were treated with 500 nM of various compounds for 20 min and cell lysates were collected. […] Replacing the H-bond acceptor O atom with hydrogen bond donor NH abolishes its stimulatory effect. […] On the other hand, 7,8-DHF provoked TrkB activation with the minimal concentration of 100 nM (FIG. 2B, right panels). To further study 4′-DMA-7,8-DHF's kinetics on TrkB activation, primary neurons were treated for various time points. 4′-DMA-7,8-DHF swiftly activated TrkB as soon as 5 minutes following treatment. […] To compare the stimulatory effect on TrkB receptor in mouse brains, 1 mg/kg of the synthesized derivatives were injected into C57BL/6J mice. TrkB activation was monitored at different time points.
Additional compounds are listed as designated from a to m (FIG. 6A). The compounds were dissolved in DMSO, then diluted into 500 μM with 1× PBS (final vehicle contains 10% DMSO/PBS). The primary rat cortical neurons (13 DIV) were treated with 500 nM compounds for 20 min. The cell lysates were analyzed by immunoblotting. […] Moreover, p-Akt ELISA was monitored to quantitatively analyze the agonistic activities of these compounds.

TrkA = biological target: T3, TrkA (Mus musculus, UniProt Q3UFB7); test: TrkA activation in brain of chronically treated mice (immunoblotting p-TrkA 794); assay type: in vivo; conditions: 5 mg/kg oral 21 days, brain lysates
T3 construct: from tissue; host or cells: brain of chronically treated C57BL/6J mice
Description: as §1, §2, §3

[3] = primary neurons, 500 nM, time course

T1 sequence (P15209 32-821): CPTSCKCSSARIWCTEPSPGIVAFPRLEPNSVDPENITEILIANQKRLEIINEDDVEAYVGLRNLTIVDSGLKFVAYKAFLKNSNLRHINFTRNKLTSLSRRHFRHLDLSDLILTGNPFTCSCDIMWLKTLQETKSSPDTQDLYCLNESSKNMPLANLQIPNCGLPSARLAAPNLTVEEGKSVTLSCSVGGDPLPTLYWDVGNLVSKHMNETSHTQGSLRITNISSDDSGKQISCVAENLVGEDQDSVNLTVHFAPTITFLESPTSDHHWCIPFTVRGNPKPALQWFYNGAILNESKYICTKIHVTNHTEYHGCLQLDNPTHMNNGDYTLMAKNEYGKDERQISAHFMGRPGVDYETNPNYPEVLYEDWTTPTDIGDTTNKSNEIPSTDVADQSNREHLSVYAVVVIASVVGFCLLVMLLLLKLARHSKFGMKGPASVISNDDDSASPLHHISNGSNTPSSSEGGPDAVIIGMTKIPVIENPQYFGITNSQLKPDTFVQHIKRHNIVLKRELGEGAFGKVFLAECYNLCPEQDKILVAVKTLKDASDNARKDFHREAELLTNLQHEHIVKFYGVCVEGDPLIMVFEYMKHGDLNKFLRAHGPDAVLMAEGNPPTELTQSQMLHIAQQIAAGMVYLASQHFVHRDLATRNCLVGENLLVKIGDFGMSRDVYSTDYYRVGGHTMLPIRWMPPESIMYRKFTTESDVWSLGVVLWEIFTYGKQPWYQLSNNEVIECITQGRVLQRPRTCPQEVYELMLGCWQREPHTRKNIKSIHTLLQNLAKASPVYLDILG
T2 sequence (Q63604 32-821): as the sequence (P15209 32-821) above, with T3M, S9T, A10T, V32I, R63K, S84G, M153T, L185I, S394T, S770N counted along it
T3 sequence (Q3UFB7 34-799): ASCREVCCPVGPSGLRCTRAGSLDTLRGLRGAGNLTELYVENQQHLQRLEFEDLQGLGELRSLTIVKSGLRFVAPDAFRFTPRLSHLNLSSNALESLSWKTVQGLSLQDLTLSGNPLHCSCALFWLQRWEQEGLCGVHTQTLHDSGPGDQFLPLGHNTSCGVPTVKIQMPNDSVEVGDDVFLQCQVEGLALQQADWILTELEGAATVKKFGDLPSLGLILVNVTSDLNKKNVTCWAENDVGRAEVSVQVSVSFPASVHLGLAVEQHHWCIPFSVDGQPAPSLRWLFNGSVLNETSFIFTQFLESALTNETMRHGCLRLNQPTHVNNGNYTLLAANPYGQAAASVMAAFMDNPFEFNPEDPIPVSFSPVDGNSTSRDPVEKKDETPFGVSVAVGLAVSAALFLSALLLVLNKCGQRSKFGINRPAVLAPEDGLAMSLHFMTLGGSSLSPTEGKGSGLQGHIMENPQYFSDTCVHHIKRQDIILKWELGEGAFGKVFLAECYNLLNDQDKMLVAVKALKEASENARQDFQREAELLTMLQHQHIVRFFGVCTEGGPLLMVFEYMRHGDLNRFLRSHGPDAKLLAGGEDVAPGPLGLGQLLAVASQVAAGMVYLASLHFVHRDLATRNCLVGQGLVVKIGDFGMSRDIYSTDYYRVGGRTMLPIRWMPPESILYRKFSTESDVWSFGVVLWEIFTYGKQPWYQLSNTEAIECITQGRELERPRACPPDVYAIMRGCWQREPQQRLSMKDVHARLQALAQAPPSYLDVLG

Row | TrkB activation in mouse brain after chronic treatment (TrkB [1]; listed as imidazole flavanoid) | TrkB activation in mouse brain after chronic treatment (TrkB [1]; listed as imidazole-derivative) | SMILES | TrkB activation in mouse brain after chronic treatment (TrkB [1]) | TrkB activation in the dentate gyrus (TrkB [1]) | TrkB activation (phosphorylation) compared to vehicle control (TrkB [2]) | TrkB activation (phosphorylation) compared to vehicle control (TrkB [2]; listed as compound a) | agonistic effect on TrkB relative to parental 7,8-DHF (TrkB [2]; from titration assays) | minimal concentration triggering TrkB activation (titration assay) (TrkB [2]) [nM] | time at which TrkB signal decayed back to baseline (TrkB [2]; [3]) [min] | time to TrkB activation following treatment (TrkB [2]; [3]) [min] | TrkA activation in mouse brain after chronic treatment (TrkA)
1 | – | – | CN(C)c1ccc(-c2cc(=O)c3ccc(O)c(O)c3o2)cc1 [4′-DMA-7,8-DHF, 4′-dimethylamino-7,8-dihydroxyflavone] | evidently provoked TrkB | markedly activated | strongly activated TrkB | activated TrkB better than compounds b to d | about 10 fold | 10 | 30 to 180 | 5 | not TrkA activation
2 | – | – | O=c1cc(-c2ccccc2)oc2c(O)c(O)ccc12 [7,8-DHF, 7,8-dihydroxyflavone, reference compound] | evidently provoked TrkB | markedly activated | stimulated TrkB activation | – | – | 100 | – | – | not TrkA activation
3 | evidently provoked TrkB | stronger activity than compound i | CN(C)c1ccc(-c2cc(=O)c3ccc4nc[nH]c4c3o2)cc1 [compound m, 8-(4-(dimethylamino)phenyl)chromeno[7,8-d]imidazol-6(1H)-one] | – | – | exhibited strong p-TrkB activity | – | – | – | – | – | not TrkA activation
